Our source for the IC50 values is patent US12545677B2, “Compounds useful as factor XIa inhibitors” (JANSSEN PHARMACEUTICA NV, priority 2020, dated 2026).

Molecules are shown by their SMILES.

Common to all, as to assay: Human liver microsomes CYP450 cocktail inhibition assay
Holding throughout (assay type): in vitro ADME

Test [1] addresses T1, CYP2D6 (Homo sapiens, UniProt P10635).
T1 construct: Frozen human liver microsomes (HLM) were thawed at 37° C; from tissue; host or cells: human liver microsomes
The settings on record: HLM 0.2 mg/ml, 10 mins; read-out: Calculated IC50, HLM 2D6. The text has this: (§1) Human Liver Microsomes CYP450 Cocktail Inhibition Assay
(§2) The cocktail DDI assay was used to evaluate test compound(s) for potential to cause drug-drug interactions via inhibition of clinically important P450 isoforms (CYP1A2, 2C8, 2C9, 2C19, 2D6, and 3A4) in early discovery. Discrimination of the inhibitory potential of the test compound towards each isoform was achieved by using a cocktail of specific probe substrates which are known to be selectively metabolized to defined metabolites by the isoforms under investigation. For example, dextromethorphan is known to be demethylated exclusively by the 2D6 isoform. Co-incubation of the probe substrates in human liver microsomes (HLM) with the test compound(s) at a range of inhibitor concentrations allows calculation of IC50 values for multiple CYP isoforms simultaneously and therefore offers a higher throughput compared to a traditional single probe assay.
(§3) Methods and Procedures: Final protein concentration in the incubation was 0.2 mg/ml and incubation time was 10 mins. The final total solvent in the incubation was 0.15% DMSO and 0.8% acetonitrile. The assay was automated on a Beckman Biomek FX automated liquid handler with multi-channel pipetting tools (8-channel and 96-channel), on deck reagent cooling capabilities and integrated automated Cytomat incubator (37° C.) with plate shaking facilities (Kendro).
(§4) Test compounds were supplied as 5 mM DMSO stock solutions. 0.1 M Phosphate buffer (pH7.4) was prepared in house using Na2HPO4·12H2O and KH2PO4.
(§5) Frozen human liver microsomes (HLM) were thawed at 37° C. while agitating regularly until the whole volume was thawed, then held on ice. Based on the protein concentration of the HLM batch, the suspension was further diluted in assay buffer and the probe substrate mixture (substrate for each CYP isoform) to yield the final protein concentration of 0.2 mg/mL.
(§6) Probe substrates were prepared separately in assay buffer (phenacetin, tolbutamide, S-mephenytoin, dextromethorphan) or water (amodiaquine, midazolam). These were combined (at the appropriate conc per substrate) with HLM and assay buffer to yield the final Enzyme/Substrate mix.
(§7) The final total solvent in the incubation was 0.15% DMSO and 0.8% acetonitrile. NADPH (5.27 mM) was prepared as a solution in assay buffer (Room Temp). The quenching solution containing deuterated analogues of each of the seven probe substrate metabolites was dissolved at an appropriate concentration in acetonitrile.
(§8) Assay procedure: Samples for incubation were prepared by combining appropriate volumes of Enzyme/Substrate mix (80 μl) and stock solutions of test or reference inhibitors (1 μl solutions added from a dilution series). Following a pre-incubation period (typically, 10 minutes), the reaction was initiated by the addition of NADPH solution (19 μl, 5.27 mM). The samples were incubated at 37° C. for 10 mins. The incubations were quenched by the addition of 1.6 volumes of chilled quenching solution. The incubations were then centrifuged for 10 minutes at 4000 rpm at 4° C. A defined volume of the supernatant (S/N) was transferred into a separate container and diluted with water (S/N: Water=60 μL/180 μL). Each sample was injected onto a UPLC/MS system using an LC/MS method selective for the simultaneous measurement of all seven probe substrate metabolites (and associated deuterated internal standards).
(§9) Calculations and Formulas: Percentage activity was calculated as % activity=(Ri/R)*100 • where Ri and R were the metabolite to internal standard peak area ratios in the presence and absence of TC, respectively. The percentage activity data were then plotted against log (TC concentration) and a curve was fitted to the data to return the IC50 using a data reduction tool within 3DX. […]

Test [2] addresses T2, CYP2C19 (Homo sapiens, UniProt P33261).
T2 construct: Frozen human liver microsomes (HLM) were thawed at 37° C; from tissue; host or cells: human liver microsomes
The conditions noted are these: HLM 0.2 mg/ml, 10 mins; read-out: Calculated IC50, HLM 2C19.
Text: as §1, §2, §3, §4, §5, §6, §7, §8, §9

Test [3] has as its target T3, CYP2C9 (Homo sapiens, UniProt P11712).
T3 construct: Frozen human liver microsomes (HLM) were thawed at 37° C; from tissue; host or cells: human liver microsomes
The conditions noted are these: HLM 0.2 mg/ml, 10 mins; read-out: Calculated IC50, HLM 2C9.
Text: as §1, §2, §3, §4, §5, §6, §7, §8, §9

For test [4], the target named is T4, CYP1A2 (Homo sapiens, UniProt P05177).
T4 construct: Frozen human liver microsomes (HLM) were thawed at 37° C; from tissue; host or cells: human liver microsomes
T4 sequence (P05177 1-516): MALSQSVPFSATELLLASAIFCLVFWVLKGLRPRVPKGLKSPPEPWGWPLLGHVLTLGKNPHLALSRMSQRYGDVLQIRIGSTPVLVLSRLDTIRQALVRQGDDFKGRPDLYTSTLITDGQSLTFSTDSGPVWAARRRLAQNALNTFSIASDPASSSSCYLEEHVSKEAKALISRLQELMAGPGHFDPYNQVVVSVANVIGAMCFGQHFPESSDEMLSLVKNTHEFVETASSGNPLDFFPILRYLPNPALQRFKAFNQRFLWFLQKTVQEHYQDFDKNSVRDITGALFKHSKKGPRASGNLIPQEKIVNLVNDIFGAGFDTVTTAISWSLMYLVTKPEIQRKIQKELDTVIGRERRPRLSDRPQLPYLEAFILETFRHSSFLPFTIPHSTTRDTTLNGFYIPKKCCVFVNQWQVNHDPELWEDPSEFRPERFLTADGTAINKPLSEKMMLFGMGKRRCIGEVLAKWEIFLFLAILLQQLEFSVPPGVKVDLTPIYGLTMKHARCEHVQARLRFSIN
The settings on record: HLM 0.2 mg/ml, 10 mins; read-out: Calculated IC50, HLM 1A2.
Text: as §1, §2, §3, §4, §5, §6, §7, §8, §9

Test [5] concerns the target T5, CYP2C8 (Homo sapiens, UniProt P10632).
T5 construct: Frozen human liver microsomes (HLM) were thawed at 37° C; from tissue; host or cells: human liver microsomes
T5 sequence (P10632 1-490): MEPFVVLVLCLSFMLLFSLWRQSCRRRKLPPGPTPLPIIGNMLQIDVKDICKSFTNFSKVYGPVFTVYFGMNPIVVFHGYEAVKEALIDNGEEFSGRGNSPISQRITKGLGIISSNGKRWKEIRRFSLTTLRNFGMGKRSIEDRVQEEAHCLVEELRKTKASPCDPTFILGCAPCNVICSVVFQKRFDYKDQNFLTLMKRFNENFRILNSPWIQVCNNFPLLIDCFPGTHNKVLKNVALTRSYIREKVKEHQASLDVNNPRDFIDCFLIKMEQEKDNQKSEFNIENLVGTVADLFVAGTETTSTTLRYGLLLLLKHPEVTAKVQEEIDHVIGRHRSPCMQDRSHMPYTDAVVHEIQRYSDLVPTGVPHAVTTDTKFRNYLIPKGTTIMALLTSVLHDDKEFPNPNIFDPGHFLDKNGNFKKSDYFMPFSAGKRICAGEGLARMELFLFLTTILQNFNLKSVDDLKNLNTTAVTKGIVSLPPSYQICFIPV
The settings on record: HLM 0.2 mg/ml, 10 mins; read-out: Calculated IC50, HLM 2C8.
Text: as §1, §2, §3, §4, §5, §6, §7, §8, §9

The target in test [6] is T6, CYP3A4 (Homo sapiens, UniProt P08684).
T6 construct: Frozen human liver microsomes (HLM) were thawed at 37° C; from tissue; host or cells: human liver microsomes
The settings on record: HLM 0.2 mg/ml, 10 mins; read-out: Calculated IC50, HLM 3A4.
Text: as §1, §2, §3, §4, §5, §6, §7, §8, §9

T6 sequence (P08684 whole entry): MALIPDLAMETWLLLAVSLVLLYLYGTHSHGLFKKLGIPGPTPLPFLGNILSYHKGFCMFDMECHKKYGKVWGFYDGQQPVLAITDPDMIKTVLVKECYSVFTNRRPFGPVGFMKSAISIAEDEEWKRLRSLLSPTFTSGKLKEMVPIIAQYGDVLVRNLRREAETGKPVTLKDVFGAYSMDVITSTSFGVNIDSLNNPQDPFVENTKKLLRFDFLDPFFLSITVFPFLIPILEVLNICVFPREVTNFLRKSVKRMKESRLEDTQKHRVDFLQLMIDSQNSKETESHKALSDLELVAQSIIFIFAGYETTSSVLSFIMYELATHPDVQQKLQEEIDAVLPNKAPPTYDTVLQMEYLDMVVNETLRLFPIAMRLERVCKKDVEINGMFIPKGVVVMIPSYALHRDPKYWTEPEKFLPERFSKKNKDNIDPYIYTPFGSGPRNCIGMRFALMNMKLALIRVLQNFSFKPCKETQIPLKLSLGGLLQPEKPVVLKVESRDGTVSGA
T3 sequence (P11712 whole entry): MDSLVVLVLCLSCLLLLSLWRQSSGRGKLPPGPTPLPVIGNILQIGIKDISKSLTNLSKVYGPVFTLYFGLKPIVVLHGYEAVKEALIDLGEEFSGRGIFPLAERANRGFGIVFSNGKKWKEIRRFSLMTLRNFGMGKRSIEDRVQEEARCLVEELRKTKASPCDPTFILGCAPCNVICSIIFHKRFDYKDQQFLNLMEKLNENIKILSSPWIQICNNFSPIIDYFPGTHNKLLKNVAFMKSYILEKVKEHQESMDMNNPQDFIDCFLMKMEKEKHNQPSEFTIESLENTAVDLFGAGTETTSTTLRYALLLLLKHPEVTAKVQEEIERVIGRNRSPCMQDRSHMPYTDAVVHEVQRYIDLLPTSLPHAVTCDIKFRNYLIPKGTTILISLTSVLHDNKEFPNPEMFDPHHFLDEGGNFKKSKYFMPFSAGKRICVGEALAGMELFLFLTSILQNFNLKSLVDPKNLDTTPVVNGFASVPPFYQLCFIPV
T2 sequence (P33261 whole entry): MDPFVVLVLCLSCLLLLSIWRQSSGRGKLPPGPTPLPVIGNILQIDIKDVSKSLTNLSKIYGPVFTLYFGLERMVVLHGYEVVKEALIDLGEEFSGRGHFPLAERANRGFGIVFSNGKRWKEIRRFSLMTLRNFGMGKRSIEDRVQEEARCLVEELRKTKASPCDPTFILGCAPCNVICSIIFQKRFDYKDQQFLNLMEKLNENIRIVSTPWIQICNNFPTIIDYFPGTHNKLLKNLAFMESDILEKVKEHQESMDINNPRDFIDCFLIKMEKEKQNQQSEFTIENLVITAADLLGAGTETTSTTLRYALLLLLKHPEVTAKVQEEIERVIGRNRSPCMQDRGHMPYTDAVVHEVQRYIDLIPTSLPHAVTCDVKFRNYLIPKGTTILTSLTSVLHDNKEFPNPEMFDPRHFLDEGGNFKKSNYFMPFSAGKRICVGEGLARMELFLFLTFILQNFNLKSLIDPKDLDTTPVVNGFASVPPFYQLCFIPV
T1 sequence (P10635 whole entry): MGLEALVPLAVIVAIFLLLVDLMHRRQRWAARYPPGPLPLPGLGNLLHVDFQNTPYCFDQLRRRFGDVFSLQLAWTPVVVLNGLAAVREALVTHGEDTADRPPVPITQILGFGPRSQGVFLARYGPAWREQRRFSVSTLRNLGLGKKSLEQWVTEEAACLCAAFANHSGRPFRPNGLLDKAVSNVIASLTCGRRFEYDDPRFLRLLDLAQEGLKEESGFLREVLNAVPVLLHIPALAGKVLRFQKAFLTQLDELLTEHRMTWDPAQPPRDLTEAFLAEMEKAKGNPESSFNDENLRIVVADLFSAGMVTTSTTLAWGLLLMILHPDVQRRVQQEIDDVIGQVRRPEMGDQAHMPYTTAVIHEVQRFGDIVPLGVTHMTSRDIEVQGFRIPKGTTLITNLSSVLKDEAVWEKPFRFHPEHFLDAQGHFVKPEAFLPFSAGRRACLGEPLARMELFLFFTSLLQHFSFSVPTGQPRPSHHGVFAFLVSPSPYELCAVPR

As for `O=C1C=C(c2c(-n3cnnn3)ccc(Cl)c2F)C[C@H]2CC[C@@H](c3ncc(-c4ccnc(CO)c4F)[nH]3)N12` [Compound of formula (I-A), (3S,8aR)-7-(3-Chloro-2-fluoro-6-(1H-tetrazol-1-yl)phenyl)-3-(5-(3-fluoro-2-(hydroxymethyl)pyridin-4-yl)-1H-imidazol-2-yl)-2,3,8,8a-tetrahydroindolizin-5(1H)-one], the 50% inhibitory concentration (IC50) is greater than 20 µM in test [1]; greater than 20 µM in test [2]; greater than 20 µM in test [3]; greater than 20 µM in test [4]; greater than 20 µM in test [5]; 14.4 µM in test [6].
